Measurements as given in BindingDB's records for doi:10.7270/Q2F769WQ (University of Pittsburgh, 2007).

What follows are compounds tested against T1, Dual specificity protein phosphatase 1 (Homo sapiens, UniProt P28562) (assay: MKP-1 phosphatase inhibitor potency, dose response, biochemical, in vitro, confirmation (AID 551)). Conditions: pH 7; 22 °C.
T1 sequence (P28562 whole entry): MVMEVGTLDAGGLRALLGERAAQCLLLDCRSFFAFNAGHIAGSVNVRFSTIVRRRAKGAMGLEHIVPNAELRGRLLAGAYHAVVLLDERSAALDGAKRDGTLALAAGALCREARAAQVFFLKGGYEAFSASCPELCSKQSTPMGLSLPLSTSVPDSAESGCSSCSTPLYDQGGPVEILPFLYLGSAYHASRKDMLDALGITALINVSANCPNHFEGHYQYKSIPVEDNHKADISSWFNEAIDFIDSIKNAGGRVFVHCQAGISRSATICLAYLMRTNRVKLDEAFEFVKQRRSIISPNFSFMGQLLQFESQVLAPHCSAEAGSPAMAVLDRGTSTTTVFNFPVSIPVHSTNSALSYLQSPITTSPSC
For `Cc1cc2n(n1)SC(Nc1ccccc1)N2` (stereo unspecified) [(6-methyl-2,5-dihydropyrazolo[1,5-b][1,2,4]thiadiazol-2-yl)-phenyl-amine], the IC50 was over 50 µM.
`O=C(NC1(O)C(=O)c2ccccc2C1=O)c1ccccc1` [N-(2-hydroxy-1,3-dioxo-2-indenyl)benzamide] was tested, and the IC50 was 14.2 µM.
Compound `FC(F)(F)c1ccc(N2CCOCC2)c(Nc2nc3ccccc3n3cnnc23)c1` [MLS000093276] has an IC50 of 22.7 µM.
`CC(=O)[C@@H]1[C@@H]2C(=O)N(c3ccc(F)c(Cl)c3)C(=O)[C@@H]2C2c3ccccc3C=CN21` (stereo partly specified) [MLS000040594] was tested, and the IC50 was over 50 µM.
In the case of `COC(=O)c1ccccc1NC(=O)CN1C(=O)C2CCCN2c2ncc(Cl)cc21` (stereo unspecified) [MLS000094302], the IC50 is reported as 35.9 µM.
`Cc1nn2c(-c3cccc(NC(=O)c4ccco4)c3)nnc2c2ccccc12` [MLS000097401] gave an IC50 of over 50 µM.
In the case of `COc1ccc(OC)c(NC(=O)CSc2nnc(Cc3cccn3C)n2CCc2ccccc2)c1` [MLS000092931], the IC50 is reported as over 50 µM.
`COc1ccc(Br)cc1C=c1sc2nc(-c3ccco3)nn2c1=O` [5-[(5-bromanyl-2-methoxy-phenyl)methylidene]-2-(furan-2-yl)-[1,3]thiazolo[3,2-b][1,2,4]triazol-6-one] was tested, and the IC50 was 4.49 µM.
With `CC(NC(=O)c1ccc2c(c1)OCO2)C1CCCO1` (stereo unspecified) [MLS000065753] the IC50 was over 50 µM.
For `CC1CCN(S(=O)(=O)c2ccc3c(c2)c(=O)c(C(=O)NC2CCCC2)cn3C)CC1` [MLS000095109], the IC50 was over 50 µM.
`O=C1C=Cc2ccccc2C1=O` [1,2-dihydronaphthalene-1,2-dione] gave an IC50 of 18.4 µM.
`N#CC(C(=O)CSc1nnc(Cc2cccs2)n1C1CCCCC1)c1nc2ccccc2[nH]1` (stereo unspecified) [MLS000098387] gave an IC50 of over 50 µM.
`Cc1c(N=c2c(=O)c3ccccc3c2=O)c(=O)n(-c2ccccc2)n1C` [MLS000105950] was tested, and the IC50 was 8.85 µM.
`Nc1c(N2CCCC2)cc(Cl)c2nonc12` [(7-chloro-5-pyrrolidino-benzofurazan-4-yl)amine] gave an IC50 of over 50 µM.
For `O=C(CSc1nc2c(cnn2-c2ccccc2)c(=O)[nH]1)c1ccc(Cl)cc1` [MLS000091816], the IC50 was over 50 µM.
`Cc1cccc(NC(=O)c2cc(NC(=O)C3CCCCC3C(=O)O)ccc2N2CCCCC2)c1` (stereo unspecified) [2-({[3-{[(3-methylphenyl)amino]carbonyl}-4-(1-piperidinyl)phenyl]amino}carbonyl)cyclohexanecarboxylic acid] showed an IC50 of 49.2 µM.
For `COc1ccc(-c2cc3nc(C4CCN(C(=O)OC(C)(C)C)CC4)c(C(=O)O)cn3n2)cc1` [2-(4-methoxyphenyl)-5-[1-[(2-methylpropan-2-yl)oxy-oxomethyl]-4-piperidinyl]-6-pyrazolo[1,5-a]pyrimidinecarboxylic acid], the IC50 was 26.9 µM.
For `Cc1ccc(Nc2nc(CSc3nnnn3-c3ccccc3)cc(=O)[nH]2)cc1` [2-[(4-methylphenyl)amino]-6-{[(1-phenyl-1H-tetrazol-5-yl)thio]methyl}-4(3H)-pyrimidinone], the IC50 was over 50 µM.
Work on `N#Cc1c(NC(=O)c2ccc(Br)o2)n(-c2ccccc2)c2nc3ccccc3nc12` [5-bromanyl-N-(3-cyano-1-phenyl-pyrrolo[3,2-b]quinoxalin-2-yl)furan-2-carboxamide] yielded an IC50 of 14 µM.
`CCCCCC1CCC(C(=O)O)CC1` (stereo unspecified) [SMR000019012] gave an IC50 of over 50 µM.
Work on `CCCCNC(=O)c1c(N)n(CCCOC)c2nc3ccccc3nc12` [2-amino-N-butyl-1-(3-methoxypropyl)-3-pyrrolo[3,2-b]quinoxalinecarboxamide] yielded an IC50 of 26.2 µM.
Compound `CCSCCOC(=O)C1=C(C)N=C2CCCC(=O)C2C1c1coc2ccccc2c1=O` (stereo unspecified) has an IC50 of over 50 µM.
Compound `CCn1c(SCC(=O)Nc2nc3ccc(OC)cc3s2)nc2c1c(=O)n(C)c(=O)n2C` [2-(7-Ethyl-1,3-dimethyl-2,6-dioxo-2,3,6,7-tetrahydro-1H-purin-8-ylsulfanyl)-N-(6-methoxy-benzothiazol-2-yl)-acetamide] has an IC50 of 18.2 µM.
`Cc1ccc(C)c(-n2nnnc2SCC(=O)c2ccc3c(c2)NC(=O)CO3)c1` [6-[2-[1-(2,5-dimethylphenyl)tetrazol-5-yl]sulfanylacetyl]-4H-1,4-benzoxazin-3-one] showed an IC50 of over 50 µM.
For `O=C(c1cccn2c(=O)c3ccc(Cl)cc3nc12)N1CCN(Cc2ccc3c(c2)OCO3)CC1` [3-chloro-6-(4-piperonylpiperazine-1-carbonyl)pyrido[2,1-b]quinazolin-11-one], the IC50 was over 50 µM.
Work on `N#Cc1c(N2CCCC2)nc(N)c2c(N)nc(N3CCCC3)cc12` [SMR000061605] yielded an IC50 of 0.136 µM.
`Cn1c(=O)c2cc(S(=O)(=O)NCCC(=O)NCCC3=CCCCC3)ccc2n(C)c1=O` [MLS000092640] was tested, and the IC50 was over 50 µM.
Compound `O=C(CSc1nc2n[nH]cc2c(=O)n1-c1ccccc1)N1CCCc2ccccc21` has an IC50 of over 50 µM.
Work on `COc1ccc(-n2c(SCC(=O)N3CCCC3)nc3c([nH]c4ccccc43)c2=O)cc1` [SMR000018494] yielded an IC50 of over 50 µM.
Work on `O=C(Nc1ccccc1)c1ccc2nc(-c3ccco3)c(-c3ccco3)nc2c1` [2,3-di-2-furyl-N-phenyl-6-quinoxalinecarboxamide] yielded an IC50 of 21.6 µM.
`Cc1ccc(/C=C/C2=Cc3c(sc(NC(=O)CSc4nnc(N)[nH]4)c3C#N)C(C)(C)C2)o1` [2-[(5-azanyl-1H-1,2,4-triazol-3-yl)sulfanyl]-N-[3-cyano-7,7-dimethyl-5-[(E)-2-(5-methylfuran-2-yl)ethenyl]-6H-1-benzothiophen-2-yl]ethanamide] showed an IC50 of 9.38 µM.
`COc1ccc(-c2cn3c(C)c(C(=O)Nc4cccc(C)n4)sc3n2)cc1` [6-(4-methoxyphenyl)-3-methyl-N-(6-methyl-2-pyridinyl)-2-imidazo[2,1-b]thiazolecarboxamide] showed an IC50 of over 50 µM.
In the case of `Cc1nc2cc(-c3cccc(F)c3)nn2c(C)c1CCC(=O)N1CCC2(CC1)OCCO2` [1-(1,4-dioxa-8-azaspiro[4.5]decan-8-yl)-3-[2-(3-fluorophenyl)-5,7-dimethyl-6-pyrazolo[1,5-a]pyrimidinyl]-1-propanone], the IC50 is reported as over 50 µM.
With `COc1ccc(S(=O)(=O)N2CCC(NC(=O)Nc3ccc(C)cc3)CC2)cc1` [1-[1-(4-Methoxy-benzenesulfonyl)-piperidin-4-yl]-3-p-tolyl-urea] the IC50 was over 50 µM.
`CCOc1ccc2nc(Nc3nc4c(c(=O)[nH]3)CCC4)nc(C)c2c1` [2-[(6-ethoxy-4-methylquinazolin-2-yl)amino]-1,5,6,7-tetrahydrocyclopenta[d]pyrimidin-4-one] showed an IC50 of over 50 µM.
For `O=c1c2cc(N3CCOCC3)ccc2[nH]c(=S)n1Cc1ccco1` [3-(2-furanylmethyl)-6-(4-morpholinyl)-2-sulfanylidene-1H-quinazolin-4-one], the IC50 was over 50 µM.
Work on `Oc1ncnc2[nH]ncc12` yielded an IC50 of over 50 µM.
`CCCCCNC(=O)c1ccc2c(=O)[nH]c3c(C(=O)NCC4CCCO4)sc(=S)n3c2c1` (stereo unspecified) [5-oxo-N3-(2-oxolanylmethyl)-N8-pentyl-1-sulfanylidene-4H-thiazolo[3,4-a]quinazoline-3,8-dicarboxamide] was tested, and the IC50 was 38.4 µM.
`CC1CCCCC1NS(=O)(=O)c1ccc(S(=O)(=O)NCc2ccncc2)cc1` (stereo unspecified) [4-N-(2-methylcyclohexyl)-1-N-(pyridin-4-ylmethyl)benzene-1,4-disulfonamide] showed an IC50 of over 50 µM.
Work on `O=C1C=Cc2ccccc2/C1=C/NC12CN3CCN(CN(C3)C1)C2` [MLS000071484] yielded an IC50 of over 50 µM.
Compound `Cc1nn(Cc2ccccc2)c(C)c1NC(=O)CSc1nc2sc3c(c2c(=O)n1C)CCC3` [MLS000096728] has an IC50 of over 50 µM.
For `O=C(Nc1cccc(-c2nc3ccccc3[nH]2)c1)c1cccc(NC(=O)c2ccco2)c1` [N-[3-[[3-(1H-benzimidazol-2-yl)phenyl]carbamoyl]phenyl]furan-2-carboxamide], the IC50 was over 50 µM.
`CCn1c(SCC(=O)Nc2ccc3c(c2)c2ccccc2n3CC)nnc1-c1ccco1` [MLS000050867] was tested, and the IC50 was 11.4 µM.
Compound `CCOc1ccc2noc3c2c1C(=O)c1ccccc1-3` [MLS000106837] has an IC50 of 49.2 µM.
`O=C(NC1CC1)c1c[nH]c2ccc(S(=O)(=O)Nc3cccc(C(F)(F)F)c3)cc2c1=O` [MLS000046685] was tested, and the IC50 was over 50 µM.
In the case of `COc1ccc(Cn2c(C)nc3c(c2=O)c2nc4ccccc4nc2n3Cc2ccco2)cc1` [MLS000079944], the IC50 is reported as 17 µM.
With `CCOC(=O)c1ccc2c(c1)C1C=CCC1C(C(=O)O)N2` (stereo unspecified) [MLS-0025126.0001] the IC50 was 15.8 µM.
`CCOc1ccc(-c2cc3nc(C4CCN(C(=O)OC(C)(C)C)CC4)c(C(=O)O)cn3n2)cc1` [2-(4-ethoxyphenyl)-5-[1-[(2-methylpropan-2-yl)oxy-oxomethyl]-4-piperidinyl]-6-pyrazolo[1,5-a]pyrimidinecarboxylic acid] showed an IC50 of 15 µM.
Work on `Cc1nc2c(C(=O)NCCC3=CCCCC3)c[nH]n2c(=O)c1Cl` [6-chloro-N-(2-cyclohex-1-en-1-ylethyl)-7-hydroxy-5-methylpyrazolo[1,5-a]pyrimidine-3-carboxamide] yielded an IC50 of 31.1 µM.
Work on `COC(=O)C1C(C)=NC2=C(C(=O)c3ccccc32)C1c1ccc(-c2ccc(C(=O)O)cc2)o1` (stereo unspecified) [4-{5-[3-(methoxycarbonyl)-2-methyl-5-oxo-4,5-dihydro-1H-indeno[1,2-b]pyridin-4-yl]-2-furyl}benzoic acid] yielded an IC50 of over 50 µM.
`CCn1cc(C(=O)NC2CCC(C)CC2)c(=O)c2cc(S(=O)(=O)N3CCCCC3)ccc21` (stereo unspecified) gave an IC50 of 48.6 µM.
